As for `O=C(CCc1nnc(Nc2ccccc2Cl)o1)NC1CCN(Cc2ccc(F)c(F)c2)CC1` [Compound No. 22 of Table I, 3-[5-(2-chloro-phenylamino)-[1,3,4]oxadiazol-2-yl]-N-[1-(3,4-difluorobenzyl)-piperidin-4-yl]-propionamide], the melting point fell in the range of 162 to 163 °C.

Compound `O=C(Cc1nnc(Nc2ccccc2)o1)NC1CCN(Cc2ccc(Cl)c(Cl)c2)CC1` [Compound No. 1 of Table I, N-[1-(3,4-Dichlorobenzyl)-piperidin-4-yl]-2-(5-phenylamino-[1,3,4]oxadiazol-2-yl)-acetamide] had a melting point of 191 to 217 °C.

The compound `O=C(Cc1csc(Nc2ccccc2)n1)NC1CCN(Cc2ccc(Cl)c(Cl)c2)CC1` [Compound No. 1 of Table V, 2-(2-Anilino-1,3-thiazol-4-yl)-N-[1-(3,4-dichlorobenzyl)piperidin-4-yl]acetamide] came in with a melting point of 191 to 192 °C.

As for `O=C(CCc1nnc(Nc2ccccc2Cl)o1)NC1CCN(Cc2ccc(Cl)c(Cl)c2)CC1` [Compound No. 6 of Table I, 3-[5-(2-chloro-phenylamino)-[1,3,4]oxadiazol-2-yl]-N-[1-(3,4-dichloro-benzyl)-piperidin-4-yl]-propionamide], the melting point fell in the range of 154 to 156 °C.

For the origin of these results see patent US6958350B2, “Chemical compounds” (AstraZeneca AB, priority 2001, dated 2005).
